Measurements reported in US20250170132A1, “SALTS AND POLYMORPHIC FORMS OF MENIN INHIBITORS AND PHARMACEUTICAL COMPOSITIONS THEREOF” (Syndax Pharmaceuticals, Inc., priority 2023, published 2025).

Key:
[1] = Plasma pharmacokinetics of compound A after twice daily dosing; format: in vivo
[2] = Dynamic vapor sorption (DVS) at 25° C. and RH up to 90%; format: physicochemical
Procedure: FIG. 4 depicts a DVS of Compound A monocitrate monohydrate Form A salt at 25° C. and RH up to 90%.

[3] = Slurry and solvent evaporation polymorph experiments of Compound A citrate salt (Table 9); format: physicochemical
Procedure: Based on the approximate solubility data of Compound A citrate salt, 18 polymorph experiments were started at RT with stirring (Table 9). Wet cakes from the slurry experiments were analyzed after 5 days of stirring. Wet cake XRPD patterns were checked and materials showing no pattern change were heated from RT to 50° C.
Procedure • 1) Slurry at RT: ˜35 mg citrate salt was slurried in different solvents in 4 mL vials using a magnetic stirrer at RT. The solids in slurry were characterized by XRPD after 3-5 days. • 2) Slurry at 50° C.: Slurries with no change in wet cake XRPD pattern when compared to starting material were heated from RT to 50° C. Samples were analyzed after 2-3 days of stirring.
Wet cake samples were isolated and kept at 25° C. for 2 h for drying. After drying, samples were analyzed by XRPD.

[4] = Solution stability studies at accelerated conditions, counterion adduct (Impurity A); format: physicochemical; settings: fumarate reacts with the pyrimidine ring; in solution and solid API
From the text: Compound A monocitrate monohydrate has at least two advantageously and unexpected characteristics. […] Second, in the manufacturing process, Compound A fumarate requires a separate slurrying step which results in a solvate with an organic solvent. Compound A monocitrate monohydrate salt is isolated directly from ethanol:water, no slurrying step is required. […] Additionally, the Compound A monocitrate forms a monohydrate instead of a solvate with one or more organic molecules.
Although this degradation pathway is more accelerated in solution it was also observed in the solid API. Formation of Impurity A was the reason why Compound A sesquifumarate API and drug product were stored at refrigerated temperatures.

[5] = Aqueous solubility of Compound A salts; format: physicochemical
Procedure: Solubility of Compound A citrate was determined in 3 different types of matrices: unbuffered water, citrate-buffered solutions from pH 3 to 6, and formulations consisting of citrate, advantame, methylparaben sodium, potassium sorbate, and sodium chloride at pH ranging from 3 to 6. Solubility in unbuffered water at ambient temperature was 38.5 mg/mL.
The target pH was reassessed when the F3 formulation was developed. Compound A citrate solubility studies were performed initially in simple buffered solutions to assess solubility trends as a function of pH. […] The target concentration of Compound A was therefore changed to 40 mg/mL as a compromise between drug substance and preservatives dissolution rate and stability.

[6] = Excipient compatibility study with Compound A sesquifumarate; format: physicochemical; settings: for Change in appearance, XRPD or DSC: 8 weeks 25° C./60% RH or 4 weeks 40° C./75% RH
From the text: The first activity in developing a tablet formulation was selection of excipients. The main purpose of the excipient compatibility study was to evaluate changes in related substances, specifically Impurity A (relative retention time [RRT]˜0.98). […] However, formation of this degradant is not possible in product containing Compound A citrate, as it is formed by reaction of the sesquifumarate drug substance with the double bond in fumaric acid. A secondary purpose of the compatibility study was to assess changes in Compound A assay and physical properties. Even though formation of Impurity A is not possible for Compound A citrate, chemical and physical results of this study were still used to guide tablet excipient selection.
Common excipients were evaluated as part of the excipient compatibility study. Samples were incubated at 25° C./60% RH long-term condition as well as a 40° C./75% RH accelerated condition. Individual vials were removed for analysis at 0, 4, and 8 weeks. Samples were tested for appearance, Compound A sesquifumarate assay and related substances, X-ray powder diffraction (XRPD), and differential scanning calorimetry (DSC) at T-0 and 4 weeks for both long-term and accelerated conditions, and 8 weeks for the long-term condition. At 8 weeks, the accelerated condition samples were tested for Compound A sesquifumarate assay and related substances only. Assay and related substances were tested by reversed-phase ultra-performance liquid chromatography (RP-UPLC), with adjusted sample preparation to accommodate small sample amounts. Vials of Compound A sesquifumarate alone were used as controls.

[7] = Solution stability of Compound A sesquifumarate at 25° C. and 40° C.; format: physicochemical; settings: for Appearance / Compound A Sesquifumarate Purity (Average % area) / Impurity A (Average % area) / pH: 50 mg/mL formulation
Procedure: The initial F1 and F2 formulations utilized Compound A sesquifumarate. The pH stability of Compound A sesquifumarate solutions was studied in water at pH 5.0, 5.5, and 6.0 over 4 weeks at 25° C. and 40° C. The desired concentration of 50 mg/mL was soluble at all pH values, although Compound A dissolution occurred more rapidly at lower pH. There was a single major degradant, designated as Impurity A (relative retention time [RRT]˜0.98).
Stability of formulations containing Compound A sesquifumarate was studied at 50 mg/mL in a formulation consisting of 0.07% advantame, 20 mM citrate, 1% grape flavor (FONA), 1% sodium chloride, and 0.02% propyl paraben at pH 6.5. Stability was measured over 4 weeks in glass vials at the accelerated condition of 25° C. Stability of the same formulation but at […] was also studied at the supra-accelerated condition of 40° C. These studies were conducted prior to preservative effectiveness testing and therefore used propyl paraben instead of the methylparaben sodium:potassium sorbate combination used in the final formulation.

[8] = about 163 mg twice daily in combination with a CYP3A4 inhibitor (e.g., a strong CYP3A4 inhibitor)

CCN(C(=O)c1cc(F)ccc1Oc1cncnc1N1CC2(CCN(C[C@H]3CC[C@H](NS(=O)(=O)CC)CC3)CC2)C1)C(C)C.O.O=C(O)CC(O)(CC(=O)O)C(=O)O
area under plasma concentration versus time curve from time 0 to 12 hours (AUC(0-12h)) of compound A [1, 8]: about 22610 ng·h/mL
maximum plasma concentration (Cmax) of compound A [1, 8]: about 3220 ng/mL
area under plasma concentration versus time curve from time 0 to 12 hours (AUC(0-12h)) of compound A ([1]; about 276 mg twice daily): about 10150 ng·h/mL
maximum plasma concentration (Cmax) of compound A ([1]; about 276 mg twice daily): about 2052 ng/mL
water absorbed (DVS) ([2]; 25° C., from 0% to 90% relative humidity): about 1.9%
hygroscopicity ([2]; DVS at 25° C. and RH up to 90%): not hygroscopic
Form ([3]; 1,4-dioxane/H2O (7:3), solvent evaporation): Form A (FIG. 19)
Form ([3]; Propanol/H2O (7:3), solvent evaporation): Form A (FIG. 19)
Form ([3]; THF/H2O (7:3), solvent evaporation): Amorphous (FIG. 19)
Form ([3]; slurry, 1,4-dioxane/H2O (7:3)): Form A (FIG. 18)
Form ([3]; slurry, 2-Me-THF, starting material a 1:1 mixture (footnote)): Form A (FIG. 18)
Form ([3]; slurry, Acetone/H2O (7:3)): Form A (FIG. 18)
Form ([3]; slurry, DCM): Form A (FIG. 17)
Form ([3]; slurry, EtOAc): Form A (FIG. 17)
Form ([3]; slurry, H2O): Form A (FIG. 18)
Form ([3]; slurry, IPAc): Form A (FIG. 18)
Form ([3]; slurry, MEK): Form A (FIG. 17)
Form ([3]; slurry, MTBE): Form A (FIG. 18)
Form ([3]; slurry, MeCN): Form C (FIG. 14)
Form ([3]; slurry, MeOH or EtOH, after air dry): dry→Form A (FIG. 16)
Form ([3]; slurry, MeOH or EtOH, wet cake): Form B (Wet cake)→ air
Form ([3]; slurry, Propanol/H2O (7:3)): Form A (FIG. 18)
Form ([3]; slurry, THF): Form A (FIG. 17)
Form ([3]; slurry, Toluene): Form A (FIG. 17)

CCN(C(=O)c1cc(F)ccc1Oc1cncnc1N1CC2(CCN(C[C@H]3CC[C@H](NS(=O)(=O)CC)CC3)CC2)C1)C(C)C.CCN(C(=O)c1cc(F)ccc1Oc1cncnc1N1CC2(CCN(C[C@H]3CC[C@H](NS(=O)(=O)CC)CC3)CC2)C1)C(C)C.O=C(O)/C=C/C(=O)O.O=C(O)/C=C/C(=O)O.O=C(O)/C=C/C(=O)O [Compound A sesquifumarate]
Chemical degradation forming impurity A [4]: subject to a chemical degradation
Biopharmaceutical Classification System solubility definition [5]: highly soluble
pH of solution ([5]; 50 mg/mL Compound A solution in water): approximately 3.5
Change in appearance, XRPD or DSC ([6]; binary mixtures with five fillers): No change
Impurity A ([6]; control sample and filler mixtures): increased in both control sample and excipient mixtures
Trends in assay or related substances ([6]; four disintegrants): No trends
Change in appearance, XRPD or DSC ([6]; four disintegrants): No change
Trends in assay or related substances ([6]; glidant and lubricants): No trends
Change in appearance, XRPD or DSC ([6]; glidant and lubricants): No change
Trends in assay or related substances ([6]; three binders): No trends
Change in appearance, XRPD or DSC ([6]; three binders): No change
Trends in assay or related substances ([6]; two alkalizers): No trends
Change in appearance, XRPD or DSC ([6]; two alkalizers): No change
Impurity A formation ([6]; with Avicel PH 101, Avicel PH113, Avicel DG): did not increase formation of Impurity A
Impurity A formation ([6]; with polyols mannitol and sorbitol): accelerate the degradant formation
Appearance ([7]; 25° C., 1 week): Clear
Compound A Sesquifumarate Purity (Average % area) ([7]; 25° C., 1 week): 99.77 % area
Impurity A (Average % area) ([7]; 25° C., 1 week): 0.14 % area
pH ([7]; 25° C., 1 week): 6.6
Appearance ([7]; 25° C., 2 weeks): Clear
Compound A Sesquifumarate Purity (Average % area) ([7]; 25° C., 2 weeks): 99.78 % area
Impurity A (Average % area) ([7]; 25° C., 2 weeks): 0.13 % area
pH ([7]; 25° C., 2 weeks): 6.6
Appearance ([7]; 25° C., 4 weeks): Clear
Compound A Sesquifumarate Purity (Average % area) ([7]; 25° C., 4 weeks): 99.78 % area
Impurity A (Average % area) ([7]; 25° C., 4 weeks): 0.14 % area
pH ([7]; 25° C., 4 weeks): 6.6
Appearance ([7]; 25° C., time 0): Clear
Compound A Sesquifumarate Purity (Average % area) ([7]; 25° C., time 0): 99.78 % area
Impurity A (Average % area) ([7]; 25° C., time 0): 0.14 % area
pH ([7]; 25° C., time 0): 6.5
Appearance ([7]; 40° C., 1 week): Clear
Compound A Sesquifumarate Purity (Average % area) ([7]; 40° C., 1 week): 99.75 % area
Impurity A (Average % area) ([7]; 40° C., 1 week): 0.17 % area
pH ([7]; 40° C., 1 week): 6.2
Appearance ([7]; 40° C., 2 weeks): Clear
Compound A Sesquifumarate Purity (Average % area) ([7]; 40° C., 2 weeks): 99.68 % area
Impurity A (Average % area) ([7]; 40° C., 2 weeks): 0.24 % area
pH ([7]; 40° C., 2 weeks): 6.2
Appearance ([7]; 40° C., 4 weeks): Clear
Compound A Sesquifumarate Purity (Average % area) ([7]; 40° C., 4 weeks): 99.58 % area
Impurity A (Average % area) ([7]; 40° C., 4 weeks): 0.34 % area
pH ([7]; 40° C., 4 weeks): 6.3
Appearance ([7]; 40° C., time 0): Clear
Compound A Sesquifumarate Purity (Average % area) ([7]; 40° C., time 0): 99.77 % area
Impurity A (Average % area) ([7]; 40° C., time 0): 0.14 % area
pH ([7]; 40° C., time 0): 6.2
Impurity A formation ([7]; water at pH 5.0, 5.5, 6.0, 4 weeks, 25° C. and 40° C.): increased in a temperature- and time-dependent manner
solubility ([7]; water at pH 5.0, 5.5 and 6.0): ≥ 50 mg/mL
